Reference: patent US4263283A, “Method for prophylaxis and/or treatment of sickle cell disease” (Ferring Pharmaceuticals, Inc., priority 1980, dated 1981)

Tests used:
sickle cell disease = test system: sickle cell disease
Excerpt: The patient was a person with sickle cell disease characterized by diffuse pain involving the spine, long bones and abdomen; an elevated serum bilirubin and leukocytosis (the former indicating at least temporary liver damage due to the disease); a reticulocyte count of about 15% (indicating formation of new red blood cells) and a hematocrit of 24-30% (below the normal level of 43-45%). Prior treatment included i.v. hydration, transfusion with packed red blood cells and i.v. narcotics to manage the pain.
Because of the increasing frequency and severity of sickling crises, they were treated with desmopressin to induce a state of chronic hypo-osmolalityof body fluids by combination with increasd oral fluid administration.

[1] = in vivo; cited from earlier work
[2] = desmopressin 40 mcg intranasally every 6 hours + hydrochlorothiazide 100 mg daily, fluid intake 4.3±0.15 l/day

Row | SMILES | effect on attainment of hyponatremic state (sickle cell disease; 100 mg daily, added to desmopressin and fluid intake of 4-5 l. daily) | vascular or non-vascular smooth muscle side effects [1] | pain and jaundice after regimen re-instated (sickle cell disease; after crisis signs on withdrawal) | period free of any signs or symptoms of sickle cell crisis (sickle cell disease; after re-instatement of the regimen) [months] | serum Na after regimen re-instated (sickle cell disease; decreased from 142 mM after re-instatement of desmopressin regimen) [mM] | serum Na level at plateau (sickle cell disease; [2]) [mM] | urine osmolality at plateau (sickle cell disease; [2]) [m Osm/kg] | time free of any signs of crisis (sickle cell disease; first period on the regimen) [days] | untoward side-effects of the induced hyponatremia (nausea, cramps, disturbances in central nervous function) (sickle cell disease; human, in vivo)
1 | NS(=O)(=O)c1cc2c(cc1Cl)NCNS2(=O)=O [Hydrochlorothiazide] | facilitated the attainment of a hyponatremic state |  |  |  |  |  |  |  | 
2 | NC(=O)CC[C@@H]1NC(=O)[C@H](Cc2ccccc2)NC(=O)[C@H](Cc2ccc(O)cc2)NC(=O)CCSSC[C@@H](C(=O)N2CCC[C@H]2C(=O)N[C@H](CCCN=C(N)N)C(=O)NCC(N)=O)NC(=O)[C@H](CC(N)=O)NC1=O [desmopressin, 1-deamino-8-D-arginine vasopressin] |  | devoid of vascular or non-vascular smooth muscle side effects | pain and jaundice abated | 6 | 127 | 125 | 344±13 | 54 | has not been associated with untoward side-effects
